# Activity calls are given as the source filed them. No cut-off for these calls is given here.
# How the values were obtained:
# [1] = test system: Aphis fabae; assay: Insecticidal activity against third-instar nymph of Aphis fabae (black bean aphids) assessed as mortality after 72 hr by spray method; format: functional; details: for LC50: Aphis fabae, 72 h
# [2] = test system: Mythimna separata; assay: Insecticidal activity against third-instar larvae of Mythimna separata (Oriental armyworm) assessed as mortality after 72 hr by spray method; format: functional
# [3] = test system: Tetranychus cinnabarinus; assay: Acaricidal activity against adult Tetranychus cinnabarinus (carmine spider mite) assessed as mortality after 72 hr by immersion method; format: functional
# [4] = test system: Mythimna separata; assay: Insecticidal activity against third-instar larvae of Mythimna separata (Oriental armyworm) assessed as mortality at 25 mg/L after 72 hr by spray method; format: functional, organism-based
# [5] = test system: Mythimna separata; assay: Insecticidal activity against third-instar larvae of Mythimna separata (Oriental armyworm) assessed as mortality at 100 mg/L after 72 hr by spray method; format: functional, organism-based
# [6] = test system: Aphis fabae; assay: Insecticidal activity against third-instar nymph of Aphis fabae (black bean aphids) assessed as mortality at 4 mg/L after 72 hr by spray method; format: functional
# [7] = test system: Tetranychus cinnabarinus; assay: Acaricidal activity against adult Tetranychus cinnabarinus (carmine spider mite) assessed as mortality at 6.25 mg/L after 72 hr by immersion method; format: functional
# [8] = test system: Mythimna separata; assay: Insecticidal activity against third-instar larvae of Mythimna separata (Oriental armyworm) assessed as mortality at 1000 mg/L after 72 hr by spray method; format: functional
# [9] = test system: Tetranychus cinnabarinus; assay: Ovolarvicidal activity against […] Tetranychus cinnabarinus (carmine spider mite) assessed as reduction in hatched eggs measured 6 days after hatching by immersion method; format: functional; details: for LC50: Tetranychus cinnabarinus, 144 h
# [10] = test system: Tetranychus cinnabarinus; assay: Acaricidal activity against adult Tetranychus cinnabarinus (carmine spider mite) assessed as mortality at 600 mg/L after 72 hr by immersion method; format: functional
SMILES,LC50 [1] [µg/mL],LC50 [2] [µg/mL],LC50 [3] [µg/mL],further results
Cc1cc(C)c(C2=C(C(=O)/C=C/c3ccccc3)C3(CCCC3)OC2=O)c(C)c1,5,26,101,Activity [4]: inactive; Activity [5]: Active
CCOC(=O)OC1=C(c2cc(C)ccc2C)C(=O)N[C@]12CC[C@@H](OC)CC2 [SPIROTETRAMAT],5.06,,,LC90 [1]: 13.56 µg/mL; mortality at 4 µg/mL [6]: 37.9%
Cc1cc(C)c(C2=C(C(=O)C3C(C=C(Cl)Cl)C3(C)C)C3(CCCC3)OC2=O)c(C)c1 (centres undefined),100,401,> 600,
Cc1cc(C)c(C2=C(C(=O)C(c3ccc(Cl)cc3)C(C)C)C3(CCCC3)OC2=O)c(C)c1 (centres undefined),101,401,101,
CCCCCCC(=O)C1=C(c2c(C)cc(C)cc2C)C(=O)OC12CCCC2,5,101,26,
COc1ccc(C(=O)C2=C(c3c(C)cc(C)cc3C)C(=O)OC23CCCC3)cc1,21,26,1,mortality at 6.25 µg/mL [7]: 55.2%
COC1=C(c2c(C)cc(C)cc2C)C(=O)OC12CCCC2,> 500,> 1000,> 600,
C/C=C/C(=O)C1=C(c2c(C)cc(C)cc2C)C(=O)OC12CCCC2,21,101,6.26,
Cc1cc(C)c(C2=C(C(=O)CC(C)(C)C)C3(CCCC3)OC2=O)c(C)c1,5,101,26,
Cc1ccc(C(=O)C2=C(c3c(C)cc(C)cc3C)C(=O)OC23CCCC3)cc1,> 500,> 1000,> 600,
CO/N=C(/C(=O)C1=C(c2c(C)cc(C)cc2C)C(=O)OC12CCCC2)c1ccccc1,21,26,26,
CCOC1=C(c2c(C)cc(C)cc2C)C(=O)OC12CCCC2,> 500,> 1000,> 600,
CCC(C)(C)C(=O)C1=C(c2c(C)cc(C)cc2C)C(=O)OC12CCCC2,21,101,6.26,
Cc1cc(C)c(C2=C(C(=O)c3ccccc3Cl)C3(CCCC3)OC2=O)c(C)c1,5,26,> 600,Activity [4]: inactive; Activity [5]: Active
C=CC(=O)C1=C(c2c(C)cc(C)cc2C)C(=O)OC12CCCC2,5,26,101,
CCCCC(=O)C1=C(c2c(C)cc(C)cc2C)C(=O)OC12CCCC2,1,26,6.26,mortality at 1000 µg/mL [8]: 100%; mortality at 4 µg/mL [6]: 55.5%
Cc1cc(C)c(C2=C(C(=O)c3ccccc3C)C3(CCCC3)OC2=O)c(C)c1,5,26,101,
Cc1cc(C)c(C2=C(C(=O)c3ccc(F)cc3)C3(CCCC3)OC2=O)c(C)c1,21,101,101,
Cc1cc(C)c(C2=C(OC(=O)CC(C)(C)C)C3(CCCC3)OC2=O)c(C)c1 [SPIROMESIFEN],5,101,6.26,LC90 [9]: 31.07 µg/mL; LC50 [9]: 4.32 µg/mL; mortality at 4 µg/mL [6]: 10.9%
CCc1c(C)cc(OC2=C(c3c(C)cc(C)cc3C)C(=O)OC23CCCC3)cc1C,> 500,> 1000,> 600,
CCCC(=O)C1=C(c2c(C)cc(C)cc2C)C(=O)OC12CCCC2,5,26,6.26,mortality at 600 µg/mL [10]: 96.6%; mortality at 1000 µg/mL [8]: 100%
CCC(C)(C)C(=O)OC1=C(c2ccc(Cl)cc2Cl)C(=O)OC12CCCCC2 [SPIRODICLOFEN],,,,mortality at 4 µg/mL [6]: 0%
CCCCCC(=O)C1=C(c2c(C)cc(C)cc2C)C(=O)OC12CCCC2,1,26,6.26,LC90 [1]: 21.77 µg/mL; LC90 [9]: 56.08 µg/mL; LC50 [9]: 11.8 µg/mL; mortality at 1000 µg/mL [8]: 100%; mortality at 4 µg/mL [6]: 95.6%; Activity [4]: inactive; Activity [5]: Active
CCC(=O)C1=C(c2c(C)cc(C)cc2C)C(=O)OC12CCCC2,21,101,6.26,
